“Also recorded” adds a separate entry of the source.
How the values were obtained:
RBE4 cells [1] = experiment: γ-H2AX counts after local 3×3 mm X-ray irradiation (irradiated and bystander zones), RBE4 cells; assay type: cell-based, rat; conditions: 1 Gy, 3 h post-irradiation, Cbx 50 μM, Gap26 161 μM, TAT-Gap19 200 μM, Xestospongin C 5 μM
Description: (§1) A defined area of the cell culture dishes were exposed to X-rays (1Gy or 20 Gy) by using a small animal radiation research platform (SARRP, Xstrahl, 220 kV, 13 mA), making use of a 3×3 mm collimator. Whole dish irradiation was done using a 10×10 cm broad-beam collimator, while localized Irradiation was performed with a 3×3 mm collimator. A Gafchromic RTQA2 film, with a sensitivity of 0.02 Gy, was placed underneath the cell dishes in order to delineate the irradiated zone.
(§2) Cells were fixed for 25 min with 4% formaldehyde (VWR) and blocked for 30 min with blocking buffer (5% normal goat serum, 1% bovine serum albumin (BSA), 0.2% Triton X-100 in PBS D+). Overnight incubation with primary antibody (1/500 anti-γ-H2AX in dilution buffer, 1/10 blocking buffer in PBS D+) was followed by a 1 h incubation with 1/400 XX-biotin-goat-anti-mouse antibody in dilution buffer, followed by a 1 h incubation with 1/400 streptavidin-alexa488 in PBS D+. Nuclei were stained with 1 μg/mL DAPI in PBS D+ for 10 min and cells were kept in PBS D+ supplemented with NaN3 at 4° C. All steps except the overnight incubation which was carried out at 4° C., were carried out at room temperature and cell cultures were rinsed thoroughly with PBS D+ between all incubation steps. Imaging was performed with an automated BD Pathway 435 imaging system (10× objective, 10×10 montage resulting in an overall image size of 8.5×6.5 mm). We then quantified the number of γ-H2AX-foci positive nuclei in the directly irradiated and bystander areas and expressed the count as a percentage relative to the number of nuclei and subtracted the percentage of background γ-H2AX signal in non-irradiated paired control cultures for each experiment. For counting γ-H2AX foci, images were thresholded to remove background pixel noise below the foci level. Where applicable, results were normalized against vehicle (bar charts with a 100% vehicle bar without statistical variability or a horizontal line).

RBE4 cells [2] = experiment: Cytosolic Ca2+ imaging after medium transfer from irradiated to recipient RBE4 cells; assay type: cell-based, rat; conditions: for [Ca2+]i responses in recipient cells: inhibitor added to the recipient cells, PPADS 50 μM; for AUC of Ca2+ transients in recipient bystander cells: inhibitor added to the irradiated culture 30 min before irradiation, NALC 1 mM
Description: Cells were seeded on glass coverslips (18 mm 0) coated with 3.5 μg/cm^2 Corning cell-tak (VWR, Leuven, Belgium) and ester loaded for 45 min with 10 μM Fluo-3-AM in HBSS-HEPES supplemented with 1 mM of probenecid and 0.01% of pluronic F127 at room temperature followed by de-esterification over 15 min. Imaging was performed using an inverted fluorescence microscope equipped with a ×40 oil immersion objective and an EM-CCD camera (QuantEM™ 512SC CCD camera, Photometrics, Tucson, Ariz.). For direct Ca^2+ measurements the loaded cells were irradiated and transferred to the microscopy stage. For medium transfer, the loaded cells were superfused for 1 min with HBSS-Hepes (1 mM), followed by 4 min with HBSS-Hepes conditioned by irradiated cultures. Fluorescence intensity changes in the cells were analyzed with custom-developed FluoFrames software (L. Leybaert, Ghent, Belgium). Ca^2+ changes were quantified as the area under the curve (AUC) of the Ca^2+ traces.

RBE4 cells [3] = experiment: γ-H2AX counts in electroporation-loaded bystander zone, RBE4 cells; assay type: cell-based, rat; conditions: BH4-Bcl-2 20 μM, BAPTA 60 μM, SOD 100 μg/mL (3 μM)
Description: as §2
Cells were grown to near confluency on 4-well plates coated with collagen. Cell monolayer cultures were washed three times with HBSS-Hepes 25 mM (pH 7.2-7.4) and subsequently three times with a low conductivity electroporation buffer (4.02 mM KH2PO4, 10.8 mM K2HPO4, 1.0 mM MgCl2, 300 mM sorbitol, 2.0 mM Hepes, pH 7.4). They were placed 400 μm underneath a two-wire Pt-Ir electrode on the microscopic stage and electroporated in the presence of a tiny amount of electroporation solution (10 μl) containing 100 μg/mL SOD, 60 μM BAPTA or 20 μM BH4-Bcl2 combined with 100 μM 10 kDa DTR. […]

[4] = system: primary brain microvascular endothelial cells (pBMECs); experiment: γ-H2AX counts after local 3×3 mm X-ray irradiation (irradiated and bystander zones), pBMECs; assay type: cell-based, mouse; conditions: 1 Gy, 3 h post-irradiation
Description: Cortices, from 10-12 week old mice, were isolated by removing cerebellum, striatum, optic nerves, brain white matter, outer vessels and meninges. After homogenization with a Dounce homogenizer in WBB (Washing Buffer B: HMS, 10 mM Hepes, 0.35 g/L NaHCO3, 0.1% BSA), the homogenate was mixed with 30% dextran in WBB and centrifuged at 3000×g for 25 min at 4° C. The pellet containing the vascular component was then resuspended in WBB and filtered through a 60 μm NY60 Nylon Net Filter (Millipore, Darmstadt, Germany). Following centrifugation at 1000×g for 7 min at room temperature, the pellet was digested in collagenase/dispase supplement with DNase I (Roche Diagnostics, Vilvoorde, Belgium) and TLCK (Tosyl, Lysin chloromethyl ketone, sigma-aldrich) for 33 min at 37° C. in a shaking water bath. The digested capillary suspension was then seeded after multiple washing steps on wells coated with matrigel or glass coated with Corning Cell-Tak (VWR, Leuven, Belgium). For the isolation of intact capillaries the protocol was aborted just before the digestion step.
as §1, §2

RBE4 cells [5] = experiment: Irradiation-induced ATP release, RBE4 cells; assay type: cell-based, rat; conditions: broad-beam 1 Gy, 5 min post-irradiation, BAPTA-AM 10 μM, NALC 1 mM, c-PTIO 100 μM
Description: ATP was measured using a luciferin-luciferase assay kit (Sigma-Aldrich) in combination with a luminometer plate reader (Victor3 1420 multi label counter; Perkin Elmer, Zaventem, Belgium).
Extracellular ATP measurements were initially carried out at different time-points post-irradiation, the effect of blockers on ATP release was tested at the 5 min post-irradiation time-point (time of maximum ATP release).

RBE4 cells [6] = experiment: Irradiation-induced propidium iodide dye uptake, RBE4 cells; assay type: cell-based, rat; conditions: 1 Gy, 5 min post-irradiation
Description: Cells were grown to near confluency in 4-well plates. Cultures were incubated with 1 mM propidium iodide (PI) and 200 μM 10 kDa dextran-FITC before focal irradiation and dye uptake was measured 5 min post-irradiation by measuring the fluorescence intensity of both dyes following image acquisition with a BD pathway 435 imaging system.

Row | Molecule | γ-H2AX counts in the bystander zone (normalized to vehicle) (RBE4 cells [1]) | γ-H2AX counts in the irradiated zone (normalized to vehicle) (RBE4 cells [1]) | γ-H2AX counts in the bystander zone (normalized to vehicle) [4] | γ-H2AX counts in the irradiated area (normalized to vehicle) [4] | irradiation-induced ATP release (RBE4 cells [5]) | also measured
1 | C1CCC[C@H]2CCCN3CC[C@@H](CCCCCC[C@@H]4CCCN5CC[C@@H](CC1)O[C@@H]45)O[C@@H]23 [Xestospongin C] | significantly reduced γ-H2AX counts in the bystander zone |  |  |  |  | 
2 | Cc1nc(N=Nc2ccc(S(=O)(=O)O)cc2S(=O)(=O)O)c(COP(=O)(O)O)c(C=O)c1O [PPADS, Pyridoxalphosphate-6-azopehyl-2′,4′-disolfonic acid] | significantly reduced γ-H2AX scores |  |  |  |  | [Ca2+]i responses in recipient cells (RBE4 cells [2]): inhibited the [Ca^2]i responses
3 | BH4-Bcl-2: IP3 receptor blocking peptide (amino acids 6-30 of Bcl-2; MW 3.6 kDa) (RTGYDNREIVMKYIHYKLSQRGYEW; UniProt P10415 6-30, looked up, fragment) |  |  |  |  |  | γ-H2AX scores in the electroporation-loaded bystander zone (normalized to vehicle) (RBE4 cells [3]): strongly reduced the γ-H2AX scores; γ-H2AX scores in the electroporation-loaded bystander zone (normalized to vehicle) (RBE4 cells [3]; listed as BH4-Bcl2): significantly decreased γ-H2AX counts
4 | CC(=O)N[C@@H](CS)C(=O)O [NALC, N-acetyl-L-cystein] | less clear responses | less clear responses | significantly reduced the γ-H2AX scores in both areas; also recorded: almost zero | significantly reduced the γ-H2AX scores in both areas | inhibited irradiation-induced ATP release; also recorded: significantly decreased ATP release | AUC of Ca2+ transients in recipient bystander cells (RBE4 cells [2]): reduced the area under the curve (AUC)
5 | CC(=O)OCOC(=O)CN(CC(=O)OCOC(C)=O)c1ccccc1OCCOc1ccccc1N(CC(=O)OCOC(C)=O)CC(=O)OCOC(C)=O [BAPTA-AM, 1.2-bis-(2-aminophynoxy)-ethane-N,N,N′,N′,tetraacetic acid acetoxy methyl ester] | less clear responses | less clear responses | significantly reduced the γ-H2AX scores in both areas; also recorded: almost zero | significantly reduced the γ-H2AX scores in both areas | inhibited irradiation-induced ATP release; also recorded: significantly decreased ATP release | 
6 | O=C([O-])CN(CC(=O)[O-])c1ccccc1OCCOc1ccccc1N(CC(=O)[O-])CC(=O)[O-].[K+].[K+].[K+].[K+] [BAPTA] |  |  |  |  |  | γ-H2AX scores in the electroporation-loaded bystander zone (normalized to vehicle) (RBE4 cells [3]): significantly decreased γ-H2AX counts; also recorded: strongly reduced the γ-H2AX scores
7 | CC1(C)N([O])C(c2ccc(C(=O)O)cc2)=[N+]([O-])C1(C)C [c-PTIO] | less clear responses | less clear responses | significantly reduced the γ-H2AX scores in both areas | significantly reduced the γ-H2AX scores in both areas | strongly reduced irradiation-induced ATP release | γ-H2AX counts in the bystander zone (normalized to vehicle) ([4]; listed as C-PTIO): almost zero; irradiation-induced ATP release (RBE4 cells [5]; listed as C-PTIO): inhibited irradiation-induced ATP release
8 | Gap26: connexin mimetic peptide, amino acids 64-76 from the first extracellular loop of Cx43 (SEQ ID NO: 1) (VCYDKSFPISHVR; Synthetic peptide_Gap26) | significantly inhibited | significantly inhibited |  | only had effect in the bystander zone | inhibited | PI uptake in the bystander area (RBE4 cells [6]): significantly reduced; also recorded: inhibited; PI uptake in the irradiated area (RBE4 cells [6]): significantly reduced; also recorded: inhibited; AUC of Ca2+ transients in recipient bystander cells (RBE4 cells [2]): reduced the area under the curve (AUC); [Ca2+]i responses in recipient cells (RBE4 cells [2]): inhibited the [Ca^2]i responses
